Results from ChEMBL document CHEMBL4602637, “Synthesis and biological evaluation of novel pyrazolo[1,5-a]pyrimidines: Discovery of a selective inhibitor of JAK1 JH2 pseudokinase and VPS34” (Bioorg Med Chem Lett, 2020).
Activity calls are given as the source filed them. The calls are words filed in the database; no cut-off is given here.

What was measured:
A2780 [1] = assay: Antimitotic activity against human A2780 cells at 10 uM by ATP lite luminescence assay; type: functional, cell-based
A2780 [2] = assay: Antimitotic activity against human A2780 cells by ATP lite luminescence assay; type: functional, cell-based
MCF7 [3] = assay: Antimitotic activity against human MCF7 cells by ATP lite luminescence assay; type: functional, cell-based
[4] = biological target: T1, Tyrosine-protein kinase JAK1 (Homo sapiens, UniProt P23458); assay: Inhibition of wild-type human partial length JAK1 JH2 pseudokinase domain (R537 to D855 residues) expressed in mammalian expression system assessed as enzyme residual activity at 10 uM by Kinomescan method relative to control
T1 sequence (P23458 whole entry, the tested form may be a part): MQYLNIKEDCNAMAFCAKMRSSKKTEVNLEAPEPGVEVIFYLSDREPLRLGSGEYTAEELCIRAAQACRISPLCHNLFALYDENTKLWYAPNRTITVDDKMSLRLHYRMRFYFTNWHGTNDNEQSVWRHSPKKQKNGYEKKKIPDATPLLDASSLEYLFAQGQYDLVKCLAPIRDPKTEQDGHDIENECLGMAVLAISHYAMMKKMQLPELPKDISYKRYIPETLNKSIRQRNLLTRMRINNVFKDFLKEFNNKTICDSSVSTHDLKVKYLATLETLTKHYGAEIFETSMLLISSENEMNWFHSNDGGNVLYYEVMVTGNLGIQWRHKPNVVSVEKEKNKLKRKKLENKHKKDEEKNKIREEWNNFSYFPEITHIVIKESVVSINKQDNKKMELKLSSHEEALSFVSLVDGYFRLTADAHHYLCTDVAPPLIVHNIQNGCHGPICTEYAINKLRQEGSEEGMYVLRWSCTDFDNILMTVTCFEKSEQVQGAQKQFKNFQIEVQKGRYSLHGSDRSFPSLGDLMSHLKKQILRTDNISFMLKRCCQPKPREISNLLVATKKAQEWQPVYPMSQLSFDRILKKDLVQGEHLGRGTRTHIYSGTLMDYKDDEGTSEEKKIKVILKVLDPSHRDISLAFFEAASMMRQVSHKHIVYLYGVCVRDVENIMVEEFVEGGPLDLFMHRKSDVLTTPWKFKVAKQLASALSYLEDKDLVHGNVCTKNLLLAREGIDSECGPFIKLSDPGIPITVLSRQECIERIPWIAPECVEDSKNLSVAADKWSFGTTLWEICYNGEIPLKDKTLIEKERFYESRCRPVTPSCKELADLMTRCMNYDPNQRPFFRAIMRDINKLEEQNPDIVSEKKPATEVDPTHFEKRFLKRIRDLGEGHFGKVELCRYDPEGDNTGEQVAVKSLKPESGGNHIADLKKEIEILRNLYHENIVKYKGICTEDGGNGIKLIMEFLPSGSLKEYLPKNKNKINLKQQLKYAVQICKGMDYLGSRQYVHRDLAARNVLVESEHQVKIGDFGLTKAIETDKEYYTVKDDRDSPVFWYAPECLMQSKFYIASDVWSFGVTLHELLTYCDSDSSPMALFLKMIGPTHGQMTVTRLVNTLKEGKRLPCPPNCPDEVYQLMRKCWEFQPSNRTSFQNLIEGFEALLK

[5] = biological target: T2, Phosphatidylinositol 3-kinase catalytic subunit type 3 (Homo sapiens, UniProt Q8NEB9); assay: Inhibition of wild-type human partial length PIK3C3 (S282 to H879 residues) expressed in mammalian expression system assessed as enzyme residual activity at 10 uM by Kinomescan method relative to control
T2 sequence (Q8NEB9 whole entry, the tested form may be a part): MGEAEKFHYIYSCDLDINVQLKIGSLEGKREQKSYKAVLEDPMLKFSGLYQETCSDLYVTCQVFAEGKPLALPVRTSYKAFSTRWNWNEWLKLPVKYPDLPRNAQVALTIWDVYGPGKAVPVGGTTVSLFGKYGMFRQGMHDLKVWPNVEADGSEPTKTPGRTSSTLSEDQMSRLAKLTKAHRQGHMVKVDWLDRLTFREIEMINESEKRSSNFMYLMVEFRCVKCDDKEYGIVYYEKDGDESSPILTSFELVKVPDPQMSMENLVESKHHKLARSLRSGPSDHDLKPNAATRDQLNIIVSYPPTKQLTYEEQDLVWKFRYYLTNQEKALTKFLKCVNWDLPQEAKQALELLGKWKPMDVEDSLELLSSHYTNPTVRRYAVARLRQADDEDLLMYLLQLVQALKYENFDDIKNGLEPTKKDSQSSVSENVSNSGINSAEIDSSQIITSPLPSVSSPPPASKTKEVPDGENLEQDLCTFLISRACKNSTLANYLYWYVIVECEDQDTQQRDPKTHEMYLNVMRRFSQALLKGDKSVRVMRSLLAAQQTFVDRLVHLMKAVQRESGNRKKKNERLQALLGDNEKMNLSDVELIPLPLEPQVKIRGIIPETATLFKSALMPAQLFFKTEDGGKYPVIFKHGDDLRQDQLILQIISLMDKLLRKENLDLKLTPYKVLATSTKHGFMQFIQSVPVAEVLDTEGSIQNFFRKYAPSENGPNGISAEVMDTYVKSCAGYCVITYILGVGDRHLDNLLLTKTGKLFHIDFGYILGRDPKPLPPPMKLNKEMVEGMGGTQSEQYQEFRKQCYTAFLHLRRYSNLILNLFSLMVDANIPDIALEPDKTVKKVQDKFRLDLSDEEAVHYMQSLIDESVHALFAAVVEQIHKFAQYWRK

[6] = biological target: T3, Ephrin type-B receptor 6 (Homo sapiens) (UniProt O15197); assay: Inhibition of wild-type human partial length EPHB6 (Q634 to P948 residues) expressed in mammalian expression system assessed as enzyme residual activity at 10 uM by Kinomescan method relative to control
T3 sequence (whole entry): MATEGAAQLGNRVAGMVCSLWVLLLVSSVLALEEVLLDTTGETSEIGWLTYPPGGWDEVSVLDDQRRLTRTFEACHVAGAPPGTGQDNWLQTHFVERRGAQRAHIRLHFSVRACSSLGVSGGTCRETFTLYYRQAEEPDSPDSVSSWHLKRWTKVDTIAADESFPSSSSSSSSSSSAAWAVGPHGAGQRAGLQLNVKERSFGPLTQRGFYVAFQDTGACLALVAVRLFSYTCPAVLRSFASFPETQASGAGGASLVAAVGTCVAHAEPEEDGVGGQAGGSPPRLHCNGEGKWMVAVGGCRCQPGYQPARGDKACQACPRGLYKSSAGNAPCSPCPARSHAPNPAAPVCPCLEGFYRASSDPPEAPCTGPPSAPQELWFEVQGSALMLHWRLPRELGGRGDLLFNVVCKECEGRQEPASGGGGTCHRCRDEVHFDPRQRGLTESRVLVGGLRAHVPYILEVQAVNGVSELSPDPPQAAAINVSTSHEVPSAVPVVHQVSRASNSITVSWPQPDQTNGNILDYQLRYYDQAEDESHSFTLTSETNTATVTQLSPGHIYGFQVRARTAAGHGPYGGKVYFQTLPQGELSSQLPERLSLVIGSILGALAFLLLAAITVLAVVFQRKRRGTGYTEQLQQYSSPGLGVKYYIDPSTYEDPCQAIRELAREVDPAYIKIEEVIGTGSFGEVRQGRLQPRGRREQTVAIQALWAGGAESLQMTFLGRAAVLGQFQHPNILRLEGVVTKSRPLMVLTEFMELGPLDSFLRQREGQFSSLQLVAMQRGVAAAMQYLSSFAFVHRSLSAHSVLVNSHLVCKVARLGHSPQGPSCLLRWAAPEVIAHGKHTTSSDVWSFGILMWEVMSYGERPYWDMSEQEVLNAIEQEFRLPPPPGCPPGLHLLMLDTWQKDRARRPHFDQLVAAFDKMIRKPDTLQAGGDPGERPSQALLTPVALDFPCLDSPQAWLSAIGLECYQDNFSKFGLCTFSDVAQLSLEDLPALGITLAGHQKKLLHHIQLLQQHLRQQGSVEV

[7] = biological target: Non-receptor tyrosine-protein kinase TYK2 (Homo sapiens) (UniProt P29597); assay: Inhibition of wild-type human partial length TYK2 JH2 pseudokinase domain (G556 to D888 residues) expressed in mammalian expression system assessed as enzyme residual activity at 10 uM by Kinomescan method relative to control
Chain of Non-receptor tyrosine-protein kinase TYK2 (Homo sapiens) (P29597 whole entry, the tested form may be a part): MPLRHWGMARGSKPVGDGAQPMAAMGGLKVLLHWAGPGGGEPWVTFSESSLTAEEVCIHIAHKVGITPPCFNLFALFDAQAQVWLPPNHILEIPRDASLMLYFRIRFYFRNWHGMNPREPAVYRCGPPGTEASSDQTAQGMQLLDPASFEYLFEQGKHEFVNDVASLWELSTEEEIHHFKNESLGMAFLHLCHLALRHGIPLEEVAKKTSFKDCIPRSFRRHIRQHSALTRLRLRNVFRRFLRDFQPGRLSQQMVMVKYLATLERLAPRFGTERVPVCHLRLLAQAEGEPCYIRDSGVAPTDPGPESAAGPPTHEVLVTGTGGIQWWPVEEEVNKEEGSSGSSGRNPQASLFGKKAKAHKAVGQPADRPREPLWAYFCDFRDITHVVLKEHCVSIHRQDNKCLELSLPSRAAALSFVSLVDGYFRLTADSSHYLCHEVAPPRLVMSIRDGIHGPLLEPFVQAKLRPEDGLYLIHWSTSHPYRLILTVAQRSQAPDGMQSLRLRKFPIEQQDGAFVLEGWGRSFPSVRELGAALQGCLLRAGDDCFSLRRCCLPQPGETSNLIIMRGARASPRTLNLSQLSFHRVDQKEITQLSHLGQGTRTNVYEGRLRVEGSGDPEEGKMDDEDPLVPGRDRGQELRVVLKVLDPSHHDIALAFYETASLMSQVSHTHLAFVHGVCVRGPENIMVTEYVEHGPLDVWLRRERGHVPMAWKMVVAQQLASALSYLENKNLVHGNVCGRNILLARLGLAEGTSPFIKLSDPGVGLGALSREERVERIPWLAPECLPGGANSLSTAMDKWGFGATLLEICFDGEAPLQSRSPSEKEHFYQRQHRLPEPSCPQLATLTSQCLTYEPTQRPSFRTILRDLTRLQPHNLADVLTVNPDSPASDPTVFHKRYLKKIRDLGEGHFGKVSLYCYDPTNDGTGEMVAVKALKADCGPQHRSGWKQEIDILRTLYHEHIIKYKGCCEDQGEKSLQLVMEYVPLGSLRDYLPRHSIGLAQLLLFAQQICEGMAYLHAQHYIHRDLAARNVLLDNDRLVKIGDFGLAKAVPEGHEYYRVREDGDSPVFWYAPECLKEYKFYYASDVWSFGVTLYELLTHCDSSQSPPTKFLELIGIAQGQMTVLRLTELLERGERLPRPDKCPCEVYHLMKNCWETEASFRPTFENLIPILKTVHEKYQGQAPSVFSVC

[8] = biological target: T4, Dual specificity mitogen-activated protein kinase kinase 5 (Homo sapiens) (UniProt Q13163); assay: Inhibition of wild-type human partial length MEK5 (L98 to P448 residues) expressed in mammalian expression system assessed as enzyme residual activity at 10 uM by Kinomescan method relative to control
T4 sequence (whole entry): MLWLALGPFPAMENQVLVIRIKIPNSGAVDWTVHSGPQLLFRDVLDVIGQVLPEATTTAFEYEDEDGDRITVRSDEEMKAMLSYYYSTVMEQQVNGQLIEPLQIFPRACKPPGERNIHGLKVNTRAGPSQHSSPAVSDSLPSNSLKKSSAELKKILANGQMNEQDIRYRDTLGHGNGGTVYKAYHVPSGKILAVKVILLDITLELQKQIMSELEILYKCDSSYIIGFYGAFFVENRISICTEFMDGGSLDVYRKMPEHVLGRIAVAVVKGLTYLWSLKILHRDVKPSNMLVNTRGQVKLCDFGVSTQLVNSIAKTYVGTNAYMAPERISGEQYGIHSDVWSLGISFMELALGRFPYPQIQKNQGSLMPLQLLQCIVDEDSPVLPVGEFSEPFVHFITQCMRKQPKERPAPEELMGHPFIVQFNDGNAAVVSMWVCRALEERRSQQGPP

[9] = biological target: T1, Tyrosine-protein kinase JAK1; assay: Binding affinity to wild-type human partial length JAK1 JH2 pseudokinase domain (R537 to D855 residues) expressed in mammalian expression system at 10 uM by Kinomescan method relative to control
[10] = biological target: T2, Phosphatidylinositol 3-kinase catalytic subunit type 3; assay: Binding affinity to wild-type human partial length PIK3C3 (S282 to H879 residues) expressed in mammalian expression system at 10 uM by Kinomescan method relative to control
Homo sapiens = species on record: Homo sapiens; assay: Ratio for inhibition of wild-type human partial length TYK2 JH2 pseudokinase domain (G556 to D888 residues) expressed in mammalian expression system at 10 uM by Kinomescan method relative to control to inhibition of wild-type human partial length JAK1 JH2 pseudokinase domain (R537 to D855 residues) expressed in mammalian expression system at 10 uM by Kinomescan method relative to control
A2780 [11] = assay: Ratio of EC50 for dorsomorphin to EC50 for test compound for antimitotic activity against human A2780 cells by ATP lite luminescence assay; type: functional
MCF7 [12] = assay: Ratio of EC50 for dorsomorphin to EC50 for test compound for antimitotic activity against human MCF7 cells by ATP lite luminescence assay; type: functional

EC50 (A2780 [2]) | EC50 (MCF7 [3]) | SMILES | Activity (A2780 [1]) | further results
930 nM | 3600 nM | Fc1ccc(-c2cnn3cc(-c4ccc(OCCN5CCCCC5)cc4)cnc23)cc1 | Active | 
1200 nM | 2200 nM | Fc1cccc(-c2cnn3cc(-c4ccc(OCCN5CCCCC5)cc4)cnc23)c1 | Active | Activity [4]: 41%; Activity [5]: 100%; Activity [6]: < 10%; Activity [7]: < 10%
2300 nM | 1600 nM | FC(F)(F)c1ccc(-c2cnn3cc(-c4ccc(OCCN5CCCCC5)cc4)cnc23)cc1 | Active | 
2900 nM |  | CN1CCN(CCOc2ccc(-c3cnc4c(-c5ccc(C(F)(F)F)cc5)cnn4c3)cc2)CC1 | Active | 

The next lines start with the compound.

SMILES | EC50 (A2780 [2]) | EC50 (MCF7 [3]) | Activity (A2780 [1]) | further results
CN1CCN(CCOc2ccc(-c3cnc4c(-c5cccc(F)c5F)cnn4c3)cc2)CC1 | 840 nM |  | Active | 
Fc1cccc(-c2cnn3cc(-c4ccc(OCCN5CCCCC5)cc4)cnc23)c1F | 1400 nM | 4300 nM | Active | 
c1ccc2sc(-c3cnn4cccnc34)nc2c1 | 900 nM |  | Active | Activity [4]: 0.8%; Activity [5]: 0.9%; Activity [6]: 9.9%; Activity [7]: 5%; Activity [8]: 3.9%; Kd [9]: 550 nM; Kd [10]: 410 nM; Ratio (Homo sapiens): 6
Fc1ccccc1-c1cnn2cc(-c3ccc(OCCN4CCCCC4)cc3)cnc12 | 2700 nM | 2800 nM | Active | 
CN1CCN(CCOc2ccc(-c3cnc4c(-c5cccc(F)c5)cnn4c3)cc2)CC1 | 950 nM |  | Active | 
CN1CCN(CCOc2ccc(-c3cnc4c(-c5ccccc5F)cnn4c3)cc2)CC1 | 520 nM |  | Active | Ratio EC50 (A2780 [11]): 2; Ratio EC50 (MCF7 [12]): 3
c1cc(-c2cnn3cc(-c4ccc(OCCN5CCCCC5)cc4)cnc23)ccn1 [DORSOMORPHIN] | 900 to 1100 nM | 4900 nM |  | 
CN1CCN(CCOc2ccc(-c3cnc4c(-c5ccc(F)cc5)cnn4c3)cc2)CC1 | 1100 nM |  | Active | 
